# Test results reported in patent US8067459B2, “Lapachone compounds and methods of use thereof” (ArQule, Inc., priority 2007, dated 2011).
# Where two headings read alike, the source gives them in different places.
# Experiments:
# [1] = tested on: A549 human lung carcinoma cells; experiment: MTS cell viability assay, A549 lung carcinoma cells; type: cell-based; settings: read-out: IC50 Values, Cancerous Cells, Lung A549
# Procedure: (§1) Cell viability was determined by measuring the activity of dehydrogenase enzymes in metabolically active cells using a tetrazolium compound, MTS. The assay was performed as described in Promega Technical Bulletin No. 169 (CellTiter 96 Aqueous Non-Radioactive Cell Proliferation Assay): All cells lines were grown in DMEM media (4.5 g/L glucose) supplemented with 15% heat-inactivated FBS, 10 mM L-glutamine, and 10 mM HEPES. Briefly, cells were seeded in 96-well plates and incubated for 16 to 24 hours; test compounds were serially diluted in DMSO, further diluted in cell culture media, then added to cells (final DMSO concentration of 0.33% v/v); cells were incubated in the presence of compound for 4 hours; MTS was added to the cells and incubated for four hours; SDS was added to a final concentration of 1.4% v/v and absorbance at 490 nm was measured within two hours using a plate reader. The amount of […] absorbance was directly proportional to the number of living cells in the culture.
# (§2) The assays of the present invention as shown in Table 1 and methods of measuring induction of E2F1 activity and elevation of E2F1 levels can be carried out following the descriptions found in Li et al., (2003) Proc Natl Acad Sci USA. 100(5): 2674-8 and U.S. Patent Application Publication No. 2002/0169135, both incorporated herein by reference.
# [2] = tested on: PACA-2 human pancreatic carcinoma cells; experiment: MTS cell viability assay, PACA-2 pancreatic carcinoma cells; type: cell-based; settings: read-out: IC50 Values, Cancerous Cells, Pancreas PACA-2
# Procedure: as §1, §2
# [3] = tested on: K-562 human leukemia cells; experiment: MTS cell viability assay, K-562 leukemia cells; type: cell-based; settings: read-out: IC50 Values, Cancerous Cells, Leukemia K-562
# Procedure: as §1, §2
# [4] = tested on: DLD-1 human colon carcinoma cells; experiment: MTS cell viability assay, DLD-1 colon carcinoma cells; type: cell-based; settings: read-out: IC50 Values, Cancerous Cells, Colon DLD-1
# Procedure: as §1, §2
# [5] = tested on: DU-145 human prostate carcinoma cells; experiment: MTS cell viability assay, DU-145 prostate carcinoma cells; type: cell-based; settings: read-out: IC50 Values, Cancerous Cells, Prostate DU-145
# Procedure: as §1, §2
# [6] = tested on: NCM-460 normal colon epithelial cells; experiment: MTS cell viability assay, NCM-460 normal colon cells; type: cell-based; settings: for IC50: Homo sapiens, read-out: IC50 Values, Normal Cells, Colon NCM-460; for Fold Selectivity (NCM-460/DLD1): ratio of IC50 NCM-460 to IC50 DLD-1
# Procedure: Since β-lapachone induces cell death only in cancer cell lines and not in normal cells (Li et al., (2003) Proc Natl Acad Sci USA. 100(5): 2674-8), the present compounds were also tested in a panel of normal cell lines from a variety of tissues including NCM-460 normal colon epithelial cells.
# as §1, §2
# E2F1 checkpoint pathway = settings: earlier studies with β-lapachone; cited from earlier work
# [7] = tested on: normal fresh or proliferating human PBMC; settings: cited from earlier work
# human cancer cell lines = settings: single agent; typical range; read-out: antineoplastic activity against human cancer cell lines (IC50); cited from earlier work
# [8] = A549, 4 hours with compound, MTS
# [9] = PACA-2, 4 hours with compound, MTS
# [10] = K562, K-562, 4 hours with compound, MTS
# [11] = DLD-1, 4 hours with compound, MTS
# [12] = DU-145, 4 hours with compound, MTS
# [13] = NCM460, NCM-460, 4 hours with compound, MTS
"IC50 [1, 8]","IC50 [2, 9]","IC50 [3, 10]","IC50 [4, 11]","IC50 [5, 12]",Compound,"IC50 [6, 13]",Fold Selectivity (NCM-460/DLD1) [6],other results
5.08 µM,2.04 µM,2.89 µM,2.39 µM,3.82 µM,"O=C1C(=O)c2ccccc2C2=C1SCC(COc1cccnc1)O2 (stereo not shown) [Compound 17, 2-[(pyridin-3-yloxy)methyl]-2,3-dihydronaphtho[1,2-b][1,4]oxathiine-5,6-dione]",5.61 µM,2.3,
4.66 µM,1.68 µM,1.51 µM,2.17 µM,3.72 µM,"CC(C)NC(=O)OCC1CSC2=C(O1)c1ccccc1C(=O)C2=O (stereo not shown) [Compound 12, (5,6-dioxo-2,3,5,6-tetrahydronaphtho[1,2-b][1,4]oxathiin-2-yl)methyl isopropylcarbamate]",5.92 µM,2.7,
> 100 µM,32.4 µM,58.2 µM,32.8 µM,> 100 µM,"CC1CSC2=C(O1)c1cc(N3CCCCC3)ccc1C(=O)C2=O (stereo not shown) [Compound 15, 2-methyl-9-piperidin-1-yl-2,3-dihydronaphtho[1,2-b][1,4]oxathiine-5,6-dione]",33.6 µM,1.0,
> 100 µM,3.39 µM,4.61 µM,3.8 µM,3.79 µM,"CC1CSC2=C(O1)c1cc(-c3ccccc3)ccc1C(=O)C2=O (stereo not shown) [Compound 14, 2-methyl-9-phenyl-2,3-dihydronaphtho[1,2-b][1,4]oxathiine-5,6-dione]",10.1 µM,2.7,
5.44 µM,2.05 µM,2.73 µM,1.36 µM,4.05 µM,"O=C(Nc1ccccc1)OCC1CSC2=C(O1)c1ccccc1C(=O)C2=O (stereo not shown) [Compound 11, (5,6-dioxo-2,3,5,6-tetrahydronaphtho[1,2-b][1,4]oxathiin-2-yl)methyl phenylcarbamate]",7.65 µM,5.6,

# The remaining lines, values behind:
Compound,"IC50 [1, 8]","IC50 [2, 9]","IC50 [3, 10]","IC50 [4, 11]","IC50 [5, 12]","IC50 [6, 13]",Fold Selectivity (NCM-460/DLD1) [6],other results
"O=C1C(=O)c2ccccc2C2=C1SCC(CN1CCC3(CC1)OCCO3)O2 (stereo not shown) [Compound 9, 2-(1,4-dioxa-8-azaspiro[4.5]dec-8-ylmethyl)-2,3-dihydronaphtho[1,2-b][1,4]oxathiine-5,6-dione]",,,,,,,,melting point: 202 to 204 °C
"CCOC(=O)N1CCN(CC2CSC3=C(O2)c2ccccc2C(=O)C3=O)CC1 (stereo not shown) [Compound 1, ethyl 4-[(5,6-dioxo-2,3,5,6-tetrahydronaphtho[1,2-b][1,4]oxathiin-2-yl)methyl]piperazine-1-carboxylate]",4.77 µM,1.95 µM,2.93 µM,1.84 µM,4.01 µM,4.78 µM,2.6,
"CC1(C)CCC2=C(O1)c1ccccc1C(=O)C2=O [β-lapachone, 3,4-dihydro-2,2-dimethyl-2H-naphtho[1,2-b]pyran-5,6-dione]",,,,,,,,activation of E2F1 checkpoint pathway in nuclei of cancer cells but not in normal cells (E2F1 checkpoint pathway): induces activation of E2F1 checkpoint pathway; cytotoxic effects on normal human PBMC [7]: No cytotoxic effects; IC50 (human cancer cell lines): 1 to 10 µM
"COC(CN(C)CC1CSC2=C(O1)c1ccccc1C(=O)C2=O)OC (stereo not shown) [Compound 4, 2-{[(2,2-dimethoxyethyl)(methyl)amino]methyl}-2,3-dihydronaphtho[1,2-b][1,4]oxathiine-5,6-dione]",,,,,,,,melting point: 80 to 82 °C
"O=C1C(=O)c2ccccc2C2=C1SCC(CN1CCC(CO)CC1)O2 (stereo not shown) [Compound 2, 2-{[4-(hydroxymethyl)piperidin-1-yl]methyl}-2,3-dihydronaphtho[1,2-b][1,4]oxathiine-5,6-dione]",11.7 µM,1.64 µM,2.84 µM,2.05 µM,3.88 µM,10.8 µM,5.3,
COC(=O)C1(C)CSC2=C(O1)c1ccccc1C(=O)C2=O (stereo not shown),,,,,,,,melting point: 188 to 189 °C
"O=C1C(=O)c2ccccc2C2=C1SCC(CN1CCC(O)CC1)O2 (stereo not shown) [Compound 3, 2-[(4-hydroxypiperidin-1-yl)methyl]-2,3-dihydronaphtho[1,2-b][1,4]oxathiine-5,6-dione]",,,,,,,,melting point: 98 to 100 °C
"CCCC1CCOC2=C(S1)C(=O)C(=O)c1ccccc12 (stereo not shown) [Compound 13, 4-propyl-3,4-dihydro-2H-naphtho[1,2-b][1,4]oxathiepine-6,7-dione]",,,,,,,1.4,"IC50 ([1]; A549, 4 h): > 100 µM; IC50 ([2]; PaCa-2, 4 h): 12.1 µM; IC50 ([3]; K562, 4 h): 10.9 µM; IC50 ([4]; DLD-1, 4 h): 12.9 µM; IC50 ([5]; DU-145, 4 h): 13.2 µM; IC50 ([6]; NCM460, 4 h): 18.6 µM"
"CC(C)NC(=O)CN1CCN(CC2CSC3=C(O2)c2ccccc2C(=O)C3=O)CC1 (stereo not shown) [Compound 8, 2-{4-[(5,6-dioxo-2,3,5,6-tetrahydronaphtho[1,2-b][1,4]oxathiin-2-yl)methyl]piperazin-1-yl}-N-isopropylacetamide]",,,,,,,,melting point: 85 to 87 °C
"O=C1C(=O)c2ccccc2C2=C1SCC(CNCc1ccccc1)O2 (stereo not shown) [Compound 7, 2-[(benzylamino)methyl]-2,3-dihydronaphtho[1,2-b][1,4]oxathiine-5,6-dione]",11.3 µM,2.75 µM,3.89 µM,2.95 µM,4.22 µM,11.4 µM,3.9,
"O=C1C(=O)c2ccccc2C2=C1SCC(CN1CCN(c3ccc(F)cc3)CC1)O2 (stereo not shown) [Compound 5, -{[4-(4-fluorophenyl)piperazin-1-yl]methyl}-2,3-dihydronaphtho[1,2-b][1,4]oxathiine-5,6-dione]",4.79 µM,1.34 µM,2.68 µM,1.57 µM,1.49 µM,9.83 µM,6.3,
"O=C1C(=O)c2ccccc2C2=C1SCC(CNCCc1ccccc1)O2 (stereo not shown) [Compound 6, 2-{[(2-phenylethyl)amino]methyl}-2,3-dihydronaphtho[1,2-b][1,4]oxathiine-5,6-dione]",12.9 µM,3.78 µM,5.29 µM,4.01 µM,4.67 µM,17.1 µM,4.3,
